From patent US7517658B2, “Methods for preparing compositions using a SNORF33 receptor” (H. Lundbeck A/S, priority 1999, dated 2009)

Key:
[1] = target: T1, hSNORF33 (Homo sapiens, UniProt Q96RJ0); test: Electrophysiological response of Xenopus oocytes expressing hSNORF33 and CFTR; format: cell-based; parameters: expressed in transfected cells; host or cells: Xenopus laevis oocytes (mRNA injection, co-expressed CFTR); details: 100 μM tyramine; dependent on CFTR co-expression
T1 sequence (Q96RJ0 1-339): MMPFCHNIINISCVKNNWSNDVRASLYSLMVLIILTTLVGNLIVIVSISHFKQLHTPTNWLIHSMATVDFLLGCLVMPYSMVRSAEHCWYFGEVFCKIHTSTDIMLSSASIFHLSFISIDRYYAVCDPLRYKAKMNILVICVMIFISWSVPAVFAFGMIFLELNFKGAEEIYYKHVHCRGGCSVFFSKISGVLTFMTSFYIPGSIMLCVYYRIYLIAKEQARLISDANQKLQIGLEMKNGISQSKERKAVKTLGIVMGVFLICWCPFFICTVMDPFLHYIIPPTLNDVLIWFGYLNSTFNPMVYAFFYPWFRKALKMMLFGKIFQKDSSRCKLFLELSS
Experimental: Unless otherwise specified, oocytes were voltage clamped at a holding potential of −80 mV. During recordings, oocytes were bathed in continuously flowing (1-3 ml/min) medium containing 96 mM NaCl, 2 mM KCl, 1.8 mM CaCl2, 1 mM MgCl2, and 5 mM HEPES, pH 7.5 (ND96). […] Experiments were carried out at room temperature.

[2] = target: T2, rat SNORF33 (Rattus norvegicus, UniProt Q923Y9); test: cAMP response in stable rat SNORF33/HEK293 cells; format: cell-based; details: data not shown
T2 construct: expressed in transfected cells
Experimental: The receptor-mediated stimulation or inhibition of cyclic AMP (cAMP) formation may be assayed in cells expressing the mammalian receptors. Cells are plated in 96-well plates or other vessels and preincubated in a buffer such as HEPES buffered saline (NaCl (150 mM), CaCl2 (1 mM), KCl (5 mM), glucose (10 mM)) supplemented with a phosphodiesterase inhibitor such as 5 mM theophylline, with or without protease inhibitor cocktail (For example, a typical inhibitor cocktail contains 2 μg/ml aprotinin, […] leupeptin, and 10 μg/ml phosphoramidon.) for 20 min at 37° C., in 5% CO2. Test compounds are added with or without […] forskolin and incubated for an additional 10 min at 37° C. The medium is then aspirated and the reaction stopped by the addition of 100 mM HCl or other methods. The plates are stored at 4° C. for 15 min, and the cAMP content in the stopping solution is measured by radioimmunoassay. Radioactivity may be quantified using a gamma counter equipped with data reduction software. Specific modifications may be performed to optimize the assay for the receptor or to alter the detection method of cAMP.

[3] = target: cloned 5-HT receptors; details: read-out: Ki values at several cloned 5-HT receptors; cited from earlier work

T2 sequence (Q923Y9 whole entry): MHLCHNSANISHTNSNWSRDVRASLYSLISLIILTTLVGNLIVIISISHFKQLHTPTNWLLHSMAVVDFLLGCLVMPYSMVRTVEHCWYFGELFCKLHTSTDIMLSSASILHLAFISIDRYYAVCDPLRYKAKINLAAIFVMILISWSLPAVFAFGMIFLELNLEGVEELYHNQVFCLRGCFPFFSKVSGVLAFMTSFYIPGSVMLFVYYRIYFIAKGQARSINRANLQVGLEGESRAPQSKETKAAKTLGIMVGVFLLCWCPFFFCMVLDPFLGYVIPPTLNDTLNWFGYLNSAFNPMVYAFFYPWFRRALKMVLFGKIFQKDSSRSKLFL

| Compound | Stimulation of hSNORF33 currents [1] | Increase in cAMP [2] [fold] | Ki [3] [nM] |
| --- | --- | --- | --- |
| NCCc1ccc(O)cc1 [Tyramine (TYR), Tyramine] | strongly stimulated | ~4 | – |
| NCCc1c[nH]c2ccccc12 [Tryptamine (T), Tryptamine] | – | – | 1 to 100 |
